What follows are compounds tested against T1, Aldo-keto reductase family 1 member B1 (Homo sapiens, UniProt P15121) (assay: Compound was evaluated for inhibition of human placental aldose reductase (HPAR) activity with glyceraldehyde as substrate).
`CCCCNS(=O)(=O)c1ccc(Cl)cc1C1NC(=O)NC1=O` (centres undefined) showed an IC50 of 700 nM. `CS(=O)(=O)c1ccc(Cl)cc1C1NC(=O)NC1=O` (centres undefined) showed an IC50 of 50 nM. In the case of `C[S+]([O-])c1ccc(Cl)cc1C1NC(=O)NC1=O` (centres undefined), the IC50 is reported as 250 nM.

These compounds were tested against T1, Aldo-keto reductase family 1 member B1 (assay: Inhibition of human placental aldose reductase (HPAR) activity with glyceraldehyde as substrate).
For `CCCCCCS(=O)(=O)c1ccc(Cl)cc1C1NC(=O)NC1=O` (centres undefined), the IC50 was 230 nM. In the case of `CC(C)S(=O)(=O)c1ccc(Cl)cc1C1NC(=O)NC1=O` (centres undefined), the IC50 is reported as 380 nM. In the case of `O=C1NC(=O)C(c2cc(Cl)ccc2S(=O)(=O)NCc2ccccc2)N1` (centres undefined), the IC50 is reported as 30 nM. Compound `O=C1NC(=O)C(c2cc(Cl)ccc2S(=O)(=O)CCc2ccc(Cl)cc2)N1` (centres undefined) has an IC50 of 220 nM. `O=C1NC(=O)C(c2cc(Cl)ccc2S(=O)(=O)NCCCCc2ccccc2)N1` (centres undefined) was tested, and the IC50 was 5630 nM. For `CCCCCS(=O)(=O)c1ccc(Cl)cc1C1NC(=O)NC1=O` (centres undefined), the IC50 was 50 nM. With `CCS(=O)(=O)c1ccc(Cl)cc1C1NC(=O)NC1=O` (centres undefined) the IC50 was 180 nM. In the case of `Cc1cc(Cl)cc(C2NC(=O)NC2=O)c1S(C)(=O)=O` (centres undefined), the IC50 is reported as 270 nM. With `CCCCCNS(=O)(=O)c1ccc(Cl)cc1C1NC(=O)NC1=O` (centres undefined) the IC50 was 190 nM. With `O=C1NC(=O)C(c2cc(Cl)ccc2S(=O)(=O)Cc2ccc(Cl)cc2)N1` (centres undefined) the IC50 was 270 nM. For `O=C1NC(=O)C(c2cc(Cl)ccc2S(=O)(=O)NCCCc2ccccc2)N1` (centres undefined), the IC50 was 100 nM. `CNS(=O)(=O)c1ccc(Cl)cc1C1NC(=O)NC1=O` (centres undefined) showed an IC50 of 130 nM. `COc1ccc(F)cc1C1NC(=O)NC1=O` (centres undefined) was tested, and the IC50 was 7470 nM. For `O=C1NC(=O)C(c2cc(Cl)ccc2[S+]([O-])Cc2ccc(Cl)cc2)N1` (centres undefined), the IC50 was 470 nM. For `O=C1NC(=O)C(c2cc(Cl)ccc2SCc2ccc(Cl)cc2)N1` (centres undefined), the IC50 was 1200 nM. `CS(=O)(=O)c1ccc(F)cc1C1NC(=O)NC1=O` (centres undefined) showed an IC50 of 610 nM. For `O=C1NC(=O)C(c2cc(Cl)ccc2S(=O)(=O)Nc2ccc(F)cc2)N1` (centres undefined), the IC50 was 230 nM. `O=C1NC(=O)C(c2cc(Cl)ccc2S(=O)(=O)NCCc2ccccc2)N1` (centres undefined) was tested, and the IC50 was 1260 nM. With `CS(=O)(=O)c1c(Cl)cc(Cl)cc1C1NC(=O)NC1=O` (centres undefined) the IC50 was 610 nM. `COc1ccc(Cl)cc1C1NC(=O)NC1=O` (centres undefined) showed an IC50 of 3870 nM. In the case of `CSc1ccc(Cl)cc1C1NC(=O)NC1=O` (centres undefined), the IC50 is reported as 620 nM. Compound `NS(=O)(=O)c1ccc(Cl)cc1C1NC(=O)NC1=O` (centres undefined) has an IC50 of 150 nM. `CN(C)S(=O)(=O)c1ccc(Cl)cc1C1NC(=O)NC1=O` (centres undefined) was tested, and the IC50 was 4470 nM. In the case of `CCCNS(=O)(=O)c1ccc(Cl)cc1C1NC(=O)NC1=O` (centres undefined), the IC50 is reported as 580 nM. `CS(=O)(=O)c1c(C2NC(=O)NC2=O)cc(Cl)cc1C(F)(F)F` (centres undefined) showed an IC50 of 580 nM. Compound `CCCS(=O)(=O)c1ccc(Cl)cc1C1NC(=O)NC1=O` (centres undefined) has an IC50 of 250 nM.
